Laboratory results from article PMC3744530, “CTA095, a Novel Etk and Src Dual Inhibitor, Induces Apoptosis in Prostate Cancer Cells and Overcomes Resistance to Src Inhibitors” (PLoS ONE, 2013).

Experiments:
[1] = system: PC3 cells stably transfected with GFP-LC3; experiment: Autophagy assay (GFP-LC3 puncta, LC3 immunoblot); format: cell-based, human; conditions: PC3 GFP-LC3, 5 μM, 24 h
Description: PC3 cells were stably transfected with GFP-LC3 [16]. Cells were grown in a 6-well plate to 50% confluence and treated with 5 μM CTA095 for 24 h. Autophagy was visualized by GFP-LC3 “puncta” and immunoblot of Endogenous LC3 isoforms.
Figure 6 Induction of autophagy in PC3 cells by CTA095. Cells were grown in 6-well plate to 50% confluence and treated with CTA095. Autophagy was visualized by GFP-LC3 “puncta” (A) and immunoblot of Endogenous LC3 isoforms (B). All experiments were carried out 24 h after treatment.

[2] = Solubility in water; format: physicochemical
[3] = system: 293 cells (Etk negative); experiment: Annexin V-FITC apoptosis in 293 cells; format: cell-based; conditions: 24 h
Description: Supplementary file pone.0070910.s005.tif: Figure S5 Induction of apoptosis of 293 cells following treatment with CTA095. 293 cells were seeded at 10^6 cells/ml (2 ml) in a 6-well plate overnight and then treated with CTA095 at the indicated concentrations for 24 h. Apoptosis was analyzed using Annexin-V FITC apoptosis detection kit. Columns, mean; bars, standard deviation, n = 3. (TIF) Click here for additional data file.

[4] = biological target: Axl (Homo sapiens, UniProt P30530); experiment: Kinase inhibition assay (TLC); format: biochemical
Description: (§1) Kinase inhibition was measured using thin-layer-chromatography (TLC). Briefly, purified kinases (20 nM), the corresponding substrate (500 µM, TSFYGRH for Etk, YIYGSFK for the other kinases), and CTA095 (0–10 µM) were incubated in a kinase reaction (100 mM Hepes, pH 7.4, 10 mM MnCl2, 10 mM MgCl2, 1 mM DTT) for 5 min, and the reaction was started by adding 5 μCi ^33P-labeled ATP. The reaction (10 µl) was incubated at room temperature for 1 h and was stopped by adding 10 μL H3PO4. The radioactivity of the peptide substrate was analyzed using TLC as previously described.
(§2) In addition to the Btk family tyrosine kinases, the inhibitory activity of CTA095 to other kinases, including Lyn, Axl, Mer, EGFR, and Abl, was investigated using a TLC assay.

[5] = biological target: EGFR (Homo sapiens, UniProt P00533); experiment: Kinase inhibition assay (TLC); format: biochemical
EGFR, sequence (P00533 25-1210, species assumed): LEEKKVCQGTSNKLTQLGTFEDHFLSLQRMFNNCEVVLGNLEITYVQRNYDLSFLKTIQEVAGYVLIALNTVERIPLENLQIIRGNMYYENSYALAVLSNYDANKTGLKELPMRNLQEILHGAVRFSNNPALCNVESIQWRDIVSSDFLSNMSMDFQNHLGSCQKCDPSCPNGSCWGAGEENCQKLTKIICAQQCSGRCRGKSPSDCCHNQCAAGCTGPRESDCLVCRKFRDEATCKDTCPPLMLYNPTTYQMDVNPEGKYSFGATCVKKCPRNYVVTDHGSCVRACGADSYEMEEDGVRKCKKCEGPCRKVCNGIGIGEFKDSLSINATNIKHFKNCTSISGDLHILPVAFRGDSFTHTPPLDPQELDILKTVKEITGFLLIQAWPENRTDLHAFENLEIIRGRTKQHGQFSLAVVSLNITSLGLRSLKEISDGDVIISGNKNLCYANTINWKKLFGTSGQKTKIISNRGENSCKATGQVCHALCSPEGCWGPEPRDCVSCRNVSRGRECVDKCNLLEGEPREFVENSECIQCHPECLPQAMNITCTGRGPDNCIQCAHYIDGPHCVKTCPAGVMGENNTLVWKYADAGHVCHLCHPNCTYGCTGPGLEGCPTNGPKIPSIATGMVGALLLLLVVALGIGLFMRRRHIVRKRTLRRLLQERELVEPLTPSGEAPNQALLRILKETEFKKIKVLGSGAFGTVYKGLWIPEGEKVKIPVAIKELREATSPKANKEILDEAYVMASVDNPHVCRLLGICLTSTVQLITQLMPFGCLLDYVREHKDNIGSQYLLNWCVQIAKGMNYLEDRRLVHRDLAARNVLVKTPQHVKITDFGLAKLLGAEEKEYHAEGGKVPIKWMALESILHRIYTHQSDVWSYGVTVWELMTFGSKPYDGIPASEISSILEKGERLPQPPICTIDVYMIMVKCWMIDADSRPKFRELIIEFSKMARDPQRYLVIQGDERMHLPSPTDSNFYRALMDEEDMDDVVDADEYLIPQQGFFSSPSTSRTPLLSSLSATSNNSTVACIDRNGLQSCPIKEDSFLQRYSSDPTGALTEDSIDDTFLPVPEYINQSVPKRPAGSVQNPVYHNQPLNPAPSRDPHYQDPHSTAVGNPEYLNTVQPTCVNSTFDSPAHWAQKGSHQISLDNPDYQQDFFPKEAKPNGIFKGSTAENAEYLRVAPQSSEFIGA
Description: as §1, §2

[6] = biological target: T1, Mer (Homo sapiens, UniProt Q12866); experiment: Kinase inhibition assay (TLC); format: biochemical
T1 construct: purchased Millipore Inc (Dundee, UK)
T1 sequence (Q12866 21-999): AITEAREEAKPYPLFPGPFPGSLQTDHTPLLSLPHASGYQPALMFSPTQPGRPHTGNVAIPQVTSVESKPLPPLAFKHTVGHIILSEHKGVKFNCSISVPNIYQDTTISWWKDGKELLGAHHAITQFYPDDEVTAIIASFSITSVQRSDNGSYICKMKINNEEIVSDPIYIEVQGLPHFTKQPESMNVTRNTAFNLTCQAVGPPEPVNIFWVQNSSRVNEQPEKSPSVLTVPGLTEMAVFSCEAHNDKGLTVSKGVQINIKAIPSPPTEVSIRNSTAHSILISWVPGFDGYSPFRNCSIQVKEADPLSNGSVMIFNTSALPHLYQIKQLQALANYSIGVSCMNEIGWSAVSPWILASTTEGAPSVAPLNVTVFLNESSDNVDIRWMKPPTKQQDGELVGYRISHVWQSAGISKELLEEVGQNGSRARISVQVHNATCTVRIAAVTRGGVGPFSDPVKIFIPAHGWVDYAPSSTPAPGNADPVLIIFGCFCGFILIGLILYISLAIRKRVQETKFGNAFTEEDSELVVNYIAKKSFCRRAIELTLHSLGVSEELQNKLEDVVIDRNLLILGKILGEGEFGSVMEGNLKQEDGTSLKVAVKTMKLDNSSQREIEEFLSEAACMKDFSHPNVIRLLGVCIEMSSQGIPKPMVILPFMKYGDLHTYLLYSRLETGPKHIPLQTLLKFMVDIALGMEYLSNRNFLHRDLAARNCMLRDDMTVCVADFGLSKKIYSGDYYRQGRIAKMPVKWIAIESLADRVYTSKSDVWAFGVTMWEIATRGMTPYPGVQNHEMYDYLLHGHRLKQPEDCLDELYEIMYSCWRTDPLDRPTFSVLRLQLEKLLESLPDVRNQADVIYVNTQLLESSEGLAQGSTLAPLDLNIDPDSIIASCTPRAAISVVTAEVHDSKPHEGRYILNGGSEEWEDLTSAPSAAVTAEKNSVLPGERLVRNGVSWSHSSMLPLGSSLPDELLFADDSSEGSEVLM
Description: as §1, §2

[7] = biological target: Lyn (Homo sapiens, UniProt P07948); experiment: Kinase inhibition assay (TLC); format: biochemical
Lyn, sequence (P07948 whole entry, species assumed): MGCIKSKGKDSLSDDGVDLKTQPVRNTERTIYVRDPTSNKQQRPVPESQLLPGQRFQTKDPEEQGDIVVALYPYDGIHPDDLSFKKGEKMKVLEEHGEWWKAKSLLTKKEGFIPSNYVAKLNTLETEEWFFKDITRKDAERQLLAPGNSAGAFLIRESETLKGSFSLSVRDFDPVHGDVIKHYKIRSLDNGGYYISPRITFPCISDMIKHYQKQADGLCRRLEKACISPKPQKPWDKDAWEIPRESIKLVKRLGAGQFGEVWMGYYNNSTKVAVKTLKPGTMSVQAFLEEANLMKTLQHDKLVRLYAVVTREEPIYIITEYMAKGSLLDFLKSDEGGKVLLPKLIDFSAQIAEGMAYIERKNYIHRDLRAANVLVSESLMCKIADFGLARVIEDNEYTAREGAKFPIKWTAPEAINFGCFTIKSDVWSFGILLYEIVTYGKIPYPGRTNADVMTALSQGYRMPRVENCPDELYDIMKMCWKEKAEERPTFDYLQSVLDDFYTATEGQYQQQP
Description: as §1, §2

[8] = biological target: Itk (Homo sapiens, UniProt Q08881); experiment: Kinase inhibition assay (TLC); format: biochemical
Itk, sequence (Q08881 whole entry, species assumed): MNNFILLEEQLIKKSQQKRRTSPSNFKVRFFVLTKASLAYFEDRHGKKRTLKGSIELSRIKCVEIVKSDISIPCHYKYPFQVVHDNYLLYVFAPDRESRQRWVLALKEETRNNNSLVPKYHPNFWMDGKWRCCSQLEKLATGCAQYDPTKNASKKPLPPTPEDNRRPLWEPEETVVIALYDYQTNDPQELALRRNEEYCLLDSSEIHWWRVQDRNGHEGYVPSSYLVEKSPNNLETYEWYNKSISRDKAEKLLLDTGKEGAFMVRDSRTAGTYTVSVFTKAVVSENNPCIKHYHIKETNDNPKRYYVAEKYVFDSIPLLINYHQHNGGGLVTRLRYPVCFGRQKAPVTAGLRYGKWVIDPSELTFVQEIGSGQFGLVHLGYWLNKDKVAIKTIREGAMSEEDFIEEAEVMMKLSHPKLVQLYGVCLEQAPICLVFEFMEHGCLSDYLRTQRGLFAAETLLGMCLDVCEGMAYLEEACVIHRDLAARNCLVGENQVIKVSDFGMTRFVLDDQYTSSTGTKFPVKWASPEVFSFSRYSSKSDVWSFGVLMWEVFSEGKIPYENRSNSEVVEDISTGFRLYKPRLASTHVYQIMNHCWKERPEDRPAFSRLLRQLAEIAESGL
Description: as §1, §2

[9] = biological target: Abl (Homo sapiens, UniProt P00519); experiment: Kinase inhibition assay (TLC); format: biochemical
Abl, sequence (P00519 whole entry, species assumed): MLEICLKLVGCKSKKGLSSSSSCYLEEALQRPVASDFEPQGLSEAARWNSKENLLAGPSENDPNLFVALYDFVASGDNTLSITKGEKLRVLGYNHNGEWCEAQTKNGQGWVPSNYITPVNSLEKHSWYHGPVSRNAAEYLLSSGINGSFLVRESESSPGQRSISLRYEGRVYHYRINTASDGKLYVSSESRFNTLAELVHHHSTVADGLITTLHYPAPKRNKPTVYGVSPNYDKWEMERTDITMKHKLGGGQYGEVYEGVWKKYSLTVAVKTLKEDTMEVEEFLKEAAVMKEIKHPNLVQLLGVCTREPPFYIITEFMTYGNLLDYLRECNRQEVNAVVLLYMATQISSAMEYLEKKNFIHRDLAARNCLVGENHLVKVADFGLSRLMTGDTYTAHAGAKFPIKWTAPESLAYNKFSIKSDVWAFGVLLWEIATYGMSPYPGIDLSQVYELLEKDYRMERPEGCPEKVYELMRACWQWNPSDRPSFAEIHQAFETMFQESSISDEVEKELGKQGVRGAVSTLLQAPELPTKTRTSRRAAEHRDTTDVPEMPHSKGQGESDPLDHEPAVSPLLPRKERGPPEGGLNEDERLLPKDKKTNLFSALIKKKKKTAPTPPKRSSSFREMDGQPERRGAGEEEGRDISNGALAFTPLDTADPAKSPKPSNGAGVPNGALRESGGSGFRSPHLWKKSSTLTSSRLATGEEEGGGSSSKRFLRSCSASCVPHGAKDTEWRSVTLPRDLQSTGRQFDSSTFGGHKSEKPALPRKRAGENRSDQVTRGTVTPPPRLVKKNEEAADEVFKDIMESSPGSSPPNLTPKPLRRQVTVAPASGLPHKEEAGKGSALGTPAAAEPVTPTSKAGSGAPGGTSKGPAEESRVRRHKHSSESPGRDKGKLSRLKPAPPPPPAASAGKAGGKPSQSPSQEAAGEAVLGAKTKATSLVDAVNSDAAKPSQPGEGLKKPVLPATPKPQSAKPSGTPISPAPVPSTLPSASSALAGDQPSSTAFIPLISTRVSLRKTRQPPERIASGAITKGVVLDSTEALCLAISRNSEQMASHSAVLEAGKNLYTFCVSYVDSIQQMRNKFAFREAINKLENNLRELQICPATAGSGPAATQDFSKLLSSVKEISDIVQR
Description: as §1, §2

[10] = system: RWPE1 cells; experiment: MTT growth inhibition assay; format: cell-based; conditions: Homo sapiens, RWPE-1, RWPE1 normal prostate cells, 72 h
Description: (§3) Cells were seeded in 96-well plates and cultured overnight, followed by treatment with 0.1% DMSO, as the vehicle control, and CTA095, at the indicated concentrations for 72 h. Growth inhibition was measured using a 3-(4,5-Dimethylthiazol-2-yl)-2,5-diphenyltetrazolium bromide (MTT) assay (Roche Diagnostic, Mannheim, Germany).
(§4) Figure 5 Growth Inhibition of CTA095 to LNCAP, CWR22Rv1, PC3 prostate cancer and normal prostate (RWPE1) cells. Cells were seeded at 5,000 cells/well in 96-well plate overnight and treated with CTA095 at the indicated concentrations. The cell viability was measured using MTT assay after 72 h. dots, mean; bars, standard deviation, n = 3.

[11] = system: CWR22Rv1 cells; experiment: MTT growth inhibition assay; format: cell-based; conditions: Homo sapiens, 72 h
Description: as §3, §4

[12] = system: LNCAP cells; experiment: MTT growth inhibition assay; format: cell-based; conditions: Homo sapiens, 72 h
Description: as §3, §4

[13] = system: PC3 cells; experiment: Flow cytometry: PI staining and Annexin V-FITC apoptosis; format: cell-based, human; conditions: PC3, 24 h
Description: PC3 cells were treated with 0.1% DMSO (control) and CTA095 at the indicated concentrations for 24 h. Cell cycle arrest was determined by the incorporation of propidium iodide (Sigma-Aldrich) into permeabilized cells. Cells undergoing apoptosis were identified using an Annexin V-FITC kit (Abcam), following the manufacturer's instructions. The cells were analyzed using a Coulter Epics XL flow cytometer (Beckman Coulter, Miami, FL).
Figure 7 Induction of apoptosis of PC3 cells following treatment with CTA095. PC3 cells were seeded at 10^6 cells/ml (2 ml) in a 6-well plate overnight and then treated with CTA095 at the indicated concentrations for 24 h. Cell cycle arrest was analyzed using PI staining (A). Apoptosis was analyzed using Annexin-V FITC apoptosis detection kit (B). Caspase 9 activation was measured using western blot (D). For caspase 3/7 activity, PC3 cells were seeded at 5000 cells/well in 96 well plate overnight and treated with CTA095 at 0–10 μM for 24 h. Caspase-3/7 activities were measured using the Apo-ONE Homogeneous Caspase-3/7 Assay kit (Promega, Madison, WI) according to the manufacturer's instruction. Columns, mean; bars, standard deviation, n = 3. […] TEXT PRINTED IN THE PICTURE: (A) CTA095: 4.3% (0 μM); 6.9% (5 μM); 44.0% (10 μM) DOUBTS OF THE COPYIST ABOUT THIS PICTURE: Panel A prints no substance label. […]

Q: What does the source list for O=c1[nH]c2cc3nc(-c4ccc5oc6ccccc6c5c4)n(CCCN4CCCCC4)c3cc2nc1-c1ccccc1 [CTA095, 2-(dibenzo[b,d]furan-2-yl)-7-phenyl-1-(3-(piperidin-1-yl)propyl)-1H-imidazo[4,5-g]quinoxalin-6(5H)-one]?
A: autophagy (GFP-LC3 puncta) [1]: extensive distinct “puncta” autophagosome morphology; solubility in water [2]: highly insoluble in water; induction of apoptosis [3]: resistant to induce apoptosis; IC50 [4]: > 10 µM; IC50 [5]: > 10 µM; IC50 [6]: > 10 µM; IC50 [7]: > 10 µM; IC50 [8]: > 10 µM; IC50 [9]: > 10 µM; IC50 [10]: 7.9 µM; IC50 [11]: 4.2 µM; IC50 [12]: 3.8 µM; apoptosis (Annexin-V reactivity) [13]: dose-dependent increase of apoptosis
